Eleven molecules from ChEMBL document CHEMBL1201862, “PubChem BioAssay data set” (2004) can be followed below.

Among the test systems are SW-620; CCRF-CEM; SR; UO-31; DU-145; NCI-H460; UACC-257; SK-MEL-5; BT-549; A498; M14; HCT-15; OVCAR-5; NCI-H226; SN12C; SNB-19; OVCAR-4; IGROV-1; HCC 2998; CAKI-1.
What all share (assay): inhibition of tumour cell growth, NCI panel, 48 h

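Briefly, cells in 96-well plates were exposed to five compound concentrations for 48 h, and endpoints were estimated by linear interpolation. At the GI50, growth is halved.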 Active and inactive are the calls of the source. Rule as the data show it: active = GI50 up to about 1.1 µM and inactive = higher.

Regarding `Nn1nnc2ccccc21`, the GI50 in the experiment on SW-620, with CCRF-CEM, in the experiment with SR, in the experiment with UO-31, in the experiment on DU-145 and in the experiment with NCI-H460 was > 100 µM (inactive) in each case. Also, the GI50 with UACC-257 is > 100 µM (inactive); in the experiment on SK-MEL-5, > 100 µM (inactive); in the experiment on BT-549, > 100 µM (inactive); in the experiment with A498, > 100 µM (inactive); in the experiment with M14, > 100 µM (inactive); with HCT-15, more than 100 µM. The GI50 in the experiment on OVCAR-5, in the experiment with NCI-H226, in the experiment on SN12C, with SNB-19, in the experiment with OVCAR-4 and in the experiment on IGROV-1 was > 100 µM (inactive) each time. Also, in the experiment on HCC 2998, the GI50 is > 100 µM (inactive).
As for `O=C(Nc1cc2c(=O)oc3ccccc3c2oc1=O)c1cccnc1`, the GI50 was > 100 µM (inactive) with SW-620; > 100 µM (inactive) in the experiment with CCRF-CEM; 78.5 µM (inactive) with SR; > 100 µM (inactive) with UO-31; > 100 µM (inactive) in the experiment with DU-145; > 100 µM (inactive) in the experiment on NCI-H460. The GI50 in the experiment on UACC-257 is > 100 µM (inactive); with SK-MEL-5 it was > 100 µM (inactive); with CAKI-1 it was > 100 µM (inactive); in the experiment on BT-549, > 100 µM (inactive); with M14, 79.6 µM (inactive); in the experiment on HCT-15, more than 100 µM. Also, the GI50 is > 100 µM (inactive) in the experiment with OVCAR-5; > 100 µM (inactive) with NCI-H226; > 100 µM (inactive) in the experiment with SN12C; 73.5 µM (inactive) with SNB-19; > 100 µM (inactive) with OVCAR-4; > 100 µM (inactive) in the experiment with IGROV-1. Further, in the experiment with HCC 2998, the GI50 was > 100 µM (inactive).
For `Cc1ccc(/N=N/c2c(C)nn(C(=O)CC(=O)Nc3ccccc3)c2C)cc1C`, the GI50 in the experiment on SW-620, in the experiment on CCRF-CEM, in the experiment on SR, with UO-31, with DU-145 and in the experiment on NCI-H460 was > 100 µM (inactive) each time. Besides, the GI50 in the experiment on UACC-257 is > 10 µM (inactive); in the experiment with SK-MEL-5, > 100 µM (inactive); in the experiment with CAKI-1, > 100 µM (inactive); in the experiment with BT-549, > 100 µM (inactive); in the experiment on A498, > 100 µM (inactive); in the experiment on M14, > 100 µM (inactive). In addition, the GI50 in the experiment on HCT-15 is more than 100 µM; in the experiment with OVCAR-5, > 100 µM (inactive); in the experiment with NCI-H226, > 100 µM (inactive); in the experiment on SN12C, > 100 µM (inactive); in the experiment with OVCAR-4, > 100 µM (inactive); in the experiment on IGROV-1 it was > 100 µM (inactive). Besides, in the experiment on HCC 2998, the GI50 is > 100 µM (inactive).
Consider `O=C(Nc1ccc(Cl)cc1)c1cc2c(cc1Cl)SC(NNCCO)=NS2(=O)=O`, for which the GI50 in the experiment with SW-620, with CCRF-CEM, in the experiment on SR, in the experiment on UO-31, with DU-145 and in the experiment with NCI-H460 was > 100 µM (inactive) throughout. Besides, the GI50 in the experiment on UACC-257 was > 100 µM (inactive); in the experiment on SK-MEL-5, > 100 µM (inactive); in the experiment on CAKI-1, > 100 µM (inactive); in the experiment with BT-549, > 100 µM (inactive); with A498, 17.6 µM (inactive); with M14, > 100 µM (inactive). Besides, the GI50 in the experiment with HCT-15 was more than 100 µM; in the experiment with NCI-H226, > 100 µM (inactive); with SNB-19, > 100 µM (inactive); with OVCAR-4, > 100 µM (inactive); in the experiment on IGROV-1, > 100 µM (inactive); in the experiment on HCC 2998, > 100 µM (inactive).
For the molecule `CC1=C(C(=O)OC(C)C)C(c2cccc([N+](=O)[O-])c2)C(C(=O)OC(CO[N+](=O)[O-])CO[N+](=O)[O-])=C(C)N1` (centres undefined), the GI50 with SW-620 was 4.14 µM (inactive); in the experiment with CCRF-CEM it was 1.92 µM (inactive); in the experiment on SR, 3.22 µM (inactive); in the experiment with UO-31, 3.44 µM (inactive); in the experiment with DU-145, 11.4 µM (inactive); with NCI-H460 it was 3.5 µM (inactive). For the same molecule, the GI50 in the experiment on UACC-257 is 3.54 µM (inactive); with SK-MEL-5 it was 1.96 µM (inactive); with CAKI-1 it was 3.99 µM (inactive); in the experiment with BT-549 it was 2.67 µM (inactive); with M14, 3.56 µM (inactive); in the experiment on HCT-15, 2.86 µM. The GI50 in the experiment with OVCAR-5 was 6.71 µM (inactive); with NCI-H226, 6.55 µM (inactive); in the experiment on SN12C, 3.97 µM (inactive); with SNB-19 it was 2.99 µM (inactive); with OVCAR-4, 2.81 µM (inactive); with IGROV-1, 4.75 µM (inactive). In the experiment on HCC 2998, the GI50 was 4.53 µM (inactive).
For the molecule `O=S1(=O)c2ccccc2N2C(c3ccccc3)=NOC2(c2ccccc2)CC1c1ccc(Br)cc1` (centres undefined), the GI50 in the experiment on SW-620, with CCRF-CEM, with SR, in the experiment on UO-31, with DU-145 and with NCI-H460 was > 100 µM (inactive) each time. Besides, the GI50 with UACC-257 is > 100 µM (inactive); with SK-MEL-5, > 100 µM (inactive); with BT-549, > 100 µM (inactive); in the experiment on A498 it was > 100 µM (inactive); with M14, 95.7 µM (inactive); with HCT-15 it was more than 100 µM. The GI50 in the experiment with OVCAR-5, with NCI-H226, in the experiment on SN12C, in the experiment with SNB-19, in the experiment on OVCAR-4 and in the experiment with IGROV-1 was > 100 µM (inactive) in each case. Moreover, the GI50 in the experiment on HCC 2998 is > 100 µM (inactive).
Take `CC(CO)(CBr)COC(=O)c1cc(Br)c(N)c(Br)c1` (centres undefined): the GI50 with SW-620 was > 100 µM (inactive); with CCRF-CEM, > 100 µM (inactive); in the experiment on SR it was 30.7 µM (inactive); with UO-31 it was 2.67 µM (inactive); in the experiment with DU-145, 48.8 µM (inactive); in the experiment with UACC-257, > 100 µM (inactive). In addition, the GI50 with SK-MEL-5 was > 100 µM (inactive); in the experiment on CAKI-1 it was 81.3 µM (inactive); in the experiment on BT-549, 76.2 µM (inactive); with A498, 62.2 µM (inactive); in the experiment with M14, > 100 µM (inactive); with HCT-15 it was more than 100 µM. In addition, the GI50 is > 100 µM (inactive) in the experiment on OVCAR-5; > 100 µM (inactive) in the experiment on NCI-H226; > 100 µM (inactive) with SN12C; 54.7 µM (inactive) with SNB-19; > 100 µM (inactive) in the experiment with OVCAR-4; 33.9 µM (inactive) in the experiment with IGROV-1. Besides, the GI50 in the experiment on HCC 2998 is > 100 µM (inactive).
As for `O=C1c2c(O)cccc2C(C(=O)CCCCC(=O)C2c3cccc(O)c3C(=O)c3c(O)cccc32)c2cccc(O)c21`, the GI50 in the experiment with SW-620 is 0.925 µM (active); with CCRF-CEM it was 0.652 µM (active); in the experiment on SR, 0.798 µM (active); in the experiment on UO-31, 0.504 µM (active); in the experiment with DU-145, 0.671 µM (active); with NCI-H460 it was 0.403 µM (active). Also, the GI50 is 0.526 µM (active) with UACC-257; 0.473 µM (active) in the experiment with SK-MEL-5; 3.92 µM (inactive) in the experiment with CAKI-1; 0.603 µM (active) in the experiment with BT-549; 1.56 µM (inactive) with A498; 0.897 µM (active) in the experiment on M14. The GI50 in the experiment with HCT-15 was 0.662 µM; in the experiment with OVCAR-5, 0.528 µM (active); with NCI-H226, 0.918 µM (active); in the experiment on SN12C, 0.83 µM (active); in the experiment on SNB-19, 0.288 µM (active); in the experiment with OVCAR-4, 0.782 µM (active). In addition, the GI50 in the experiment on HCC 2998 was 0.791 µM (active).
As to `O=C(Nc1c(Cl)cccc1Cl)c1c(Cl)c(Cl)c(Cl)c(Cl)c1-c1nc2ccccc2[nH]1`, the GI50 was 64.6 µM (inactive) in the experiment on SW-620; > 100 µM (inactive) in the experiment on CCRF-CEM; 27.7 µM (inactive) in the experiment with SR; 80.5 µM (inactive) in the experiment on UO-31; 62.2 µM (inactive) in the experiment with DU-145; > 100 µM (inactive) in the experiment on NCI-H460. The GI50 is > 100 µM (inactive) in the experiment on UACC-257; 29.9 µM (inactive) in the experiment on SK-MEL-5; 62.7 µM (inactive) with CAKI-1; 56.9 µM (inactive) with BT-549; 11.4 µM (inactive) in the experiment with A498; 22.1 µM (inactive) with M14. Further, the GI50 was 98.9 µM in the experiment on HCT-15; > 100 µM (inactive) with OVCAR-5; 14.5 µM (inactive) in the experiment on NCI-H226; 49.5 µM (inactive) in the experiment on SN12C; 43.6 µM (inactive) in the experiment with OVCAR-4; 14.2 µM (inactive) in the experiment on IGROV-1. Moreover, in the experiment on HCC 2998, the GI50 is 38.5 µM (inactive).
Consider `Cn1c(=O)c2[nH]c(-n3nc(-c4ccccc4)cc3N)nc2n(C)c1=O`, for which the GI50 was 2.64 µM (inactive) in the experiment with CCRF-CEM; 4.31 µM (inactive) with SR; 6.89 µM (inactive) in the experiment with UO-31; 7.93 µM (inactive) in the experiment with DU-145; 3.3 µM (inactive) with NCI-H460; 5.38 µM (inactive) in the experiment on SK-MEL-5. For the same molecule, the GI50 in the experiment on CAKI-1 was 2.12 µM (inactive); in the experiment on BT-549, 14.5 µM (inactive); in the experiment with A498, 11.1 µM (inactive); with M14, 10.5 µM (inactive); in the experiment on HCT-15, 0.8 µM; in the experiment on OVCAR-5, 21.3 µM (inactive). The GI50 in the experiment with NCI-H226 was 5.55 µM (inactive); in the experiment with SN12C, 4.6 µM (inactive); in the experiment on OVCAR-4, 2.91 µM (inactive); in the experiment on IGROV-1, 1.34 µM (inactive); with HCC 2998, 8.67 µM (inactive).
As for `Cc1nc(N)c(N2CCN(C(=O)O)CC2)c(O)n1`, the GI50 in the experiment on SW-620, with CCRF-CEM, in the experiment on SR, in the experiment on UO-31, in the experiment on DU-145 and in the experiment with NCI-H460 was > 100 µM (inactive) in each case. Besides, the GI50 with UACC-257 was > 100 µM (inactive); with BT-549, > 100 µM (inactive); with A498 it was > 100 µM (inactive); with M14 it was > 100 µM (inactive); in the experiment on HCT-15, more than 100 µM; in the experiment on OVCAR-5, > 100 µM (inactive). Further, the GI50 in the experiment on NCI-H226, in the experiment with SN12C, with SNB-19, with OVCAR-4 and in the experiment with HCC 2998 was > 100 µM (inactive) throughout.
